# Assay results reported in patent US7892767B2, “Phosphospecific chemokine receptor antibodies” (Washington University in St. Louis, priority 2005, dated 2011).
# Columns and labels:
# [1] = test system: cerebellar granule precursor cells (GPCs); experiment: Intracellular cAMP by ELISA, primary cerebellar granule precursor cells; type: cell-based, mouse; details: 1 μg/ml CXCL12
# Protocol: Primary granule neuron cultures. Primary cultures of purified GPCs were prepared from 6 day-old BALB/C mice as described (58). Cerebella were dissected and meninges were removed. After incubation with 0.1% trypsin (Sigma) in HBSS with 125 units/ml Dnase (Sigma), 0.5 mM EDTA for 20 minutes at 37° C., cells were pelleted and washed three times with HBSS. The final cell suspension was passed through a […] nylon mesh cell strainer (Falcon, Franklin Lakes, Mich.). Cells were diluted to 2×10^6 cells/ml in DMEM/F12 (Gibco BRL, Gaithersburg, Md.) supplemented with N2 (Gibco BRL), 20 mM KCl, and 36 mM glucose.
# Growth factor and drug treatment. Following serum-starvation for 24 hours, astrocytes, granule cells, U87 cells and Daoy cells, were treated with 1 μg/ml CXCL12 (PeproTech), […] AMD3465 (kind gift from Simon Fricker, AnorMED, Langley, BC, Canada) (200 μM Rolipram (Sigma), or 10 μM Forskolin (Sigma) as indicated.
# Determination of cAMP concentration. Competitive immunoassay for cAMP concentration was performed exactly as directed by the manufacturer. Absorbance at 405 nm was measured and cAMP concentrations were determined by calculation based on a standard curve. Protein concentrations were measured by colormetric assay (Bio-Rad, Hercules, Calif.) according to the manufacturer's directions. cAMP values were normalized to protein for each sample individually.
# Nf1+/+ astrocytes = experiment: Cell cycle analysis by flow cytometry, Nf1+/+ astrocytes; type: cell-based, mouse; details: CXCL12 0.1 μg/ml
# Protocol: Cell Cycle Analysis. Ethanol fixed cells were washed in PBS and resuspended in PI staining solution containing 0.1% Triton-X-100, 0.2 mg/ml RNase A, and 20 ug/ml Propidium Iodide in PBS. The cells were incubated for 15 minutes at 37° C., in the dark. Flow Cytometry was performed on a FACSCalibur system (Becton Dickinson, San Jose, Calif.) Data were analyzed using CellQuest software (Becton Dickinson, San Jose, Calif.). Aggregates and debris were excluded from the analysis.
# The basis for the in vitro growth effects of CXCL12 was further evaluated by cell cycle analysis of asynchronously growing cultures of Nf1+/+ and Nf1−/− astrocytes in the presence and absence of CXCL12. In agreement with measurements of cell number, 15% more Nf1−/− astrocytes were in the S+G2M fraction of the cell cycle compared to Nf1+/+ astrocytes (P<0.005, data not shown). This decrease in Nf1+/+ cell number in response to CXCL12 was the result of both a 6% decrease in proliferation (S+G2-M) and a 38+/−8% increase in apoptosis (sub-G0). The increase in Nf1−/− cell number was the result of a 27+/−12% decline in apoptosis alone (FIG. 9C).
# CXCR4 = CXCR4 (Homo sapiens, UniProt P61073); experiment: Stimulated CXCR4 phosphorylation in LN428 GBM cells (western blot); type: cell-based; design: lysates from the glioblastoma cell line LN428, which is known to express high levels of CXCR4; endogenous in cells; host or cells: LN428 GBM cell line
# Sequence of CXCR4 (P61073 whole entry): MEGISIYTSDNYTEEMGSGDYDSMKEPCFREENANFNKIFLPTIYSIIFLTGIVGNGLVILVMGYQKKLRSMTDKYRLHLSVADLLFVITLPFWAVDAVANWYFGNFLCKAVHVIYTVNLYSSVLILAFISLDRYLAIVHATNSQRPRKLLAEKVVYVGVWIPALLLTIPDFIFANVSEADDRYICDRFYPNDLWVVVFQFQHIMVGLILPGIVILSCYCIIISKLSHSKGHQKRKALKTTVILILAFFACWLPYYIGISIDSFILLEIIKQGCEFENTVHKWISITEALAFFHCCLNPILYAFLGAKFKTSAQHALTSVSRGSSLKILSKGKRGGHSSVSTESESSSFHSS
# Protocol: Cell Culture, transfections and stimulation of CXCR4 phosphorylation. The U87 glioblastoma multiforme (GBM, grade IV) cell line was obtained from the American Type Culture Collection. The LN428 GBM cell line was a kind gift of Dr Erwin van Meir (Winship Cancer Center, Emory University, Atlanta, Ga.). U87 cells were grown in minimum essential a media supplemented with 10% fetal bovine serum ((FBS), Biomedia, Foster City, Calif.). LN428 cells were grown in DMEM (Fisher, Pittsburgh, Pa.) supplemented with 10% horse serum (Sigma). All cells were grown in the presence of penicillin-streptomycin. The coding sequence for human CXCR4 was obtained by high fidelity RT-PCR (Superscript III Platinum, Invitrogen), and cloned into the expression vector pMSCVneo (Clontech, Palo Alto, Calif.). Transfections were performed with 0.3 μg of plasmid DNA in 20 μl Lipofectamine (Invitrogen)/35 mm^2 tissue culture dish for 9 hours according to the manufacturer's instructions. Cells recovered in Optimem supplemented with 10% FBS. Transfected and non-transfected cells were placed in serum free media for 24 hours prior to treatment with agents to stimulate CXCR4 phosphorylation. Treatment was usually for 0 or 10 minutes with 1 μg/ml CXCL12 (Peprotech, Rocky Hill N.J.), 4 μM 4-Phorbol 12-myristate 13-acetate (PMA) or 10 nM EGF. In some experiments, CXCL12 was washed away and cells were incubated for an additional 20 minutes in serum free media alone.
# Western Blot Analysis. Whole-cell extracts were obtained by lysing cells with lysis buffer (20 mM Tris pH 7.4, 137 mM NaCl, 10% Glycerol and 1% Triton X-100) supplemented with phosphatase inhibitor cocktail set II (Calbiochem, La Jolla, Calif.) and protease inhibitors PMSF (1 mM), leupeptin (0.005 mg/ml) and aprotonin (0.005 mg/ml). The proteins (50-75 μg) were resolved with 10% Bis-Tris gels (Invitrogen) and transferred onto the nitrocellulose membrane Hybond ECL (Amersham, Piscataway, N.J.) according to standard protocols. Polyclonal anti-CXCR4 antibody was used at a 1:500 dilution and P338-CXCR4 and P339-CXCR4 directed antibodies were used at 1:100 dilutions overnight at 4° C. This was followed by incubation with horseradish peroxidase-conjugated secondary antibody (1:15,000; Bio-Rad). Peroxide activity was detected using the enhanced chemiluminescence Supersignal West Dura system (Pierce, Rockford, Ill.). Mouse anti-actin antibody at a concentration of 1:1500 was used as a loading control. Peptide competitions and lambda phosphatase treatment were performed as described above.
# The utility of these antibodies for evaluating the relationship between ligand binding and CXCR4 function is dependent upon their ability to distinguish a ligand activated form of the receptor. Serum starvation increased CXCL12 responsiveness (data not shown), and for all of these experiments LN428 GBM cells were serum starved for 24 hours prior to CXCL12 treatment. Serum starved LN428 cells were treated with 1 μg/ml CXCL12 for 0 or 10 minutes and the abundance of phospho-CXCR4 was determined by western blot and immuno-localization in fixed cells. […] A similar CXCL12-induced increase in P339-CXCR4 (FIG. 3B), but not P338-CXCR4 (data not shown) immunoreactivity was seen by immunofluorescent analysis of paraformaldehyde fixed cells. After 10 minutes of exposure to CXCL12, P339-CXCR4 can be seen localized to the surface of LN428 cells (FIG. 3B). CXCL12 was then washed away and cells were incubated in its absence for an additional 20 minutes. Surface labeling declined as a function of time and P339-CXCR4 was seen accumulating intracellularly.
# Whether this is the only kinase that can phosphorylate these residues is unclear. The observation that protein kinase C (PKC) stimulated CXCR4 internalization also depends upon phosphorylation of this region of the molecule raises the question of whether these sites might also be PKC phosphorylation sites (17, 19, 27, 28). […]
# [2] = 1 μg/ml CXCL12, 4 μM PMA or 10 nM EGF
substance,measurement,setting,value
CXCL12: chemokine ligand of CXCR4 (Peprotech),change in cAMP levels,[1],little to no change
same,decrease in proliferation (S+G2-M),Nf1+/+ astrocytes,6%
same,increase in apoptosis (sub-G0),Nf1+/+ astrocytes,38+/−8%
same,P338 phosphorylation stimulated,CXCR4; [2],not
same,P339 phosphorylation,CXCR4; [2],stimulated
same,P338-CXCR4 levels after treatment,"CXCR4; 1 μg/ml CXCL12, 10 minutes, serum starved LN428 cells",unaffected
